Results: ChEMBL document CHEMBL5346978, “Exploration of Tetrahydroisoquinoline- and Benzo[c]azepine-Based Sphingosine 1-Phosphate Receptor 1 Agonists for the Treatment of Multiple Sclerosis” (J Med Chem, 2023)

How the values were obtained:
[1] = Microsomal stability in mouse liver microsomes assessed as parent compound remaining preincubated for 5 mins followed by NADPH addition measured after 30 mins by LC-MS/MS analysis; type: ADME, Microsome; conditions: time 35 min, read-out: Stability
[2] = Microsomal stability in human liver microsomes assessed as parent compound remaining preincubated for 5 mins followed by NADPH addition measured after 30 mins by LC-MS/MS analysis; type: ADME, Microsome; conditions: time 35 min, read-out: Stability
[3] = biological target: T1, Sphingosine 1-phosphate receptor 1 (Homo sapiens, UniProt P21453); experiment: Agonist activity at S1P1 (unknown origin) expressed in human HEK293/Galpha15 cells assessed as Ca2+ activation at 1 uM measured for 2 hrs by FLIPR analysis relative to control; type: functional, cell-based
[4] = biological target: T1, Sphingosine 1-phosphate receptor 1; experiment: Agonist activity at S1P1 (unknown origin) expressed in PathHunter CHO-K1 EDG1 beta-arrestin cells assessed as beta-arrestin2 recruitment incubated for 90 mins by chemiluminescence based assay; type: functional, cell-based
[5] = biological target: T1, Sphingosine 1-phosphate receptor 1; experiment: Agonist activity at S1P1 (unknown origin) expressed in PathHunter CHO-K1 EDG1 beta-arrestin cells assessed as beta-arrestin2 recruitment at 1 uM incubated for 90 mins by chemiluminescence based assay relative to control; type: functional, cell-based; conditions: filed as agonist
[6] = Microsomal stability in rat liver microsomes assessed as parent compound remaining preincubated for 5 mins followed by NADPH addition measured after 30 mins by LC-MS/MS analysis; type: ADME, Microsome; conditions: time 35 min, read-out: Stability
[7] = biological target: T1, Sphingosine 1-phosphate receptor 1; experiment: Agonist activity at S1P1 (unknown origin) expressed in human HEK293/Galpha15 cells assessed as Ca2+ activation measured for 2 hrs by FLIPR analysis; type: functional, cell-based
CYP2D6 = CYP2D6 (Homo sapiens, UniProt P10635); experiment: Inhibition of CYP2D6 in human liver microsomes using dextromethorphan as substrate assessed as residual activity at 10 uM preincubated for 5 mins followed by substrate addition and measured after 15 mins in presence of NADPH by LC-MS/MS analysis; type: ADME, Microsome; conditions: probe dextromethorphan, time 20 min, read-out: Activity
CYP3A4 = CYP3A4 (Homo sapiens, UniProt P08684); experiment: Inhibition of CYP3A4 in human liver microsomes using midazolam as substrate assessed as residual activity at 10 uM preincubated for 5 mins followed by substrate addition and measured after 15 mins in presence of NADPH by LC-MS/MS analysis; type: ADME, Microsome; conditions: probe midazolam, time 20 min, read-out: Activity
[8] = Microsomal stability in mouse liver microsomes assessed as parent compound remaining preincubated for 5 mins followed by NADPH addition measured after 60 mins by LC-MS/MS analysis; type: ADME, Microsome; conditions: time 65 min, read-out: Stability
[9] = Microsomal stability in human liver microsomes assessed as parent compound remaining preincubated for 5 mins followed by NADPH addition measured after 60 mins by LC-MS/MS analysis; type: ADME, Microsome; conditions: time 65 min, read-out: Stability
CYP2C9 = CYP2C9 (Homo sapiens, UniProt P11712); experiment: Inhibition of CYP2C9 in human liver microsomes using diclofenac as substrate assessed as residual activity at 10 uM preincubated for 5 mins followed by substrate addition and measured after 15 mins in presence of NADPH by LC-MS/MS analysis; type: ADME, Microsome; conditions: probe diclofenac, time 20 min, read-out: Activity
CYP1A2 = biological target: T2, CYP1A2 (Homo sapiens, UniProt P05177); experiment: Inhibition of CYP1A2 in human liver microsomes using phenacetin as substrate assessed as residual activity at 10 uM preincubated for 5 mins followed by substrate addition and measured after 15 mins in presence of NADPH by LC-MS/MS analysis; type: ADME, Microsome; conditions: probe phenacetin, time 20 min, read-out: Activity
T2 sequence (P05177 whole entry): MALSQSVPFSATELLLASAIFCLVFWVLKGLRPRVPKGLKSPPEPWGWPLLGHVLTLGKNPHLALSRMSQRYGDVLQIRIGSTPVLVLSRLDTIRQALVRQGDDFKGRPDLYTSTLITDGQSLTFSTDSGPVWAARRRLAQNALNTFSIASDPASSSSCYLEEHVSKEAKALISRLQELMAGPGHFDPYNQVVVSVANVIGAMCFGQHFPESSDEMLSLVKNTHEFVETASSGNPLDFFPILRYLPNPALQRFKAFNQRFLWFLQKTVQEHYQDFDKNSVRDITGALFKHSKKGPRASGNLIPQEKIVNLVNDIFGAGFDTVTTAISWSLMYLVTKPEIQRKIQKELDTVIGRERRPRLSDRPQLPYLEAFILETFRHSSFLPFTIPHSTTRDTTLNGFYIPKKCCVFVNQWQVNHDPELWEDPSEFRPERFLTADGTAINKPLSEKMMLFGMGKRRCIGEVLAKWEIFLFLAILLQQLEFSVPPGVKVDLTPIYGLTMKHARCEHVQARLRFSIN

[10] = Microsomal stability in rat liver microsomes assessed as parent compound remaining preincubated for 5 mins followed by NADPH addition measured after 60 mins by LC-MS/MS analysis; type: ADME, Microsome; conditions: time 65 min, read-out: Stability

CYP3A4, sequence (P08684 whole entry): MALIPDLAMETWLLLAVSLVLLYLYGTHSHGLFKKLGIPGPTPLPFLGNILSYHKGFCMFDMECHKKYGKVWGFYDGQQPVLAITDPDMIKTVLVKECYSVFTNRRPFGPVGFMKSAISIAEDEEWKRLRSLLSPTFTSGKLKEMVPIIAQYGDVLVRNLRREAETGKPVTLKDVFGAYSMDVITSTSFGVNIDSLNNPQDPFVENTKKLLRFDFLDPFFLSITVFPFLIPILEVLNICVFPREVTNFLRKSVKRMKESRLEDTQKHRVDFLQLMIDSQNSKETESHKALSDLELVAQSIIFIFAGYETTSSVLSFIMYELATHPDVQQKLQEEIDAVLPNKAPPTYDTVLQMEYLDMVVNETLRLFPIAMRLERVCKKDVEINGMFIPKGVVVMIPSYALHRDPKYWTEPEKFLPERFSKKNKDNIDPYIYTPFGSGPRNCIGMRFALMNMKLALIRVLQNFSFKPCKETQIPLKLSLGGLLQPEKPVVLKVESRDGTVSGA
CYP2D6, sequence (P10635 whole entry): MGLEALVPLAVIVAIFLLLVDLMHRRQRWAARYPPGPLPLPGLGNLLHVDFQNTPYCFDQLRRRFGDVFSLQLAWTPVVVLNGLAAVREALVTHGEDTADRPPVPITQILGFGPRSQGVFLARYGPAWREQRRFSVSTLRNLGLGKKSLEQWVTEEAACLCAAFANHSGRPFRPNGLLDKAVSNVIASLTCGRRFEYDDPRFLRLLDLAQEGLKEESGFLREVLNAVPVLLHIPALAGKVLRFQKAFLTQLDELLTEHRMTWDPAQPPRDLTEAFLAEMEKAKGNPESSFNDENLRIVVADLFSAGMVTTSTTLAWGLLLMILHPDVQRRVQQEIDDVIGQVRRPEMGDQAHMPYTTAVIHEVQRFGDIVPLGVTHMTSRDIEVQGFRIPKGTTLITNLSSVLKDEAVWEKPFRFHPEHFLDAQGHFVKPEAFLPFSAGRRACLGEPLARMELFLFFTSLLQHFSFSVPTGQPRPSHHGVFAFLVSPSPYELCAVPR
T1 sequence (P21453 whole entry): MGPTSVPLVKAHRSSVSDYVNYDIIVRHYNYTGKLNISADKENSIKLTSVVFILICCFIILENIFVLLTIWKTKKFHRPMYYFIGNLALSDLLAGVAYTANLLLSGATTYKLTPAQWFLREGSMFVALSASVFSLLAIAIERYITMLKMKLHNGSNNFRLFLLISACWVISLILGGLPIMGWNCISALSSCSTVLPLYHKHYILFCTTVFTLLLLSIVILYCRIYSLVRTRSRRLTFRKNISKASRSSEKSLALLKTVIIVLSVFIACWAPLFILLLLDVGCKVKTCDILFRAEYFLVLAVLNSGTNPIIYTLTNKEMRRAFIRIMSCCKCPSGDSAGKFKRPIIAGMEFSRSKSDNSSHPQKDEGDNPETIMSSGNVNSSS
CYP2C9, sequence (P11712 whole entry): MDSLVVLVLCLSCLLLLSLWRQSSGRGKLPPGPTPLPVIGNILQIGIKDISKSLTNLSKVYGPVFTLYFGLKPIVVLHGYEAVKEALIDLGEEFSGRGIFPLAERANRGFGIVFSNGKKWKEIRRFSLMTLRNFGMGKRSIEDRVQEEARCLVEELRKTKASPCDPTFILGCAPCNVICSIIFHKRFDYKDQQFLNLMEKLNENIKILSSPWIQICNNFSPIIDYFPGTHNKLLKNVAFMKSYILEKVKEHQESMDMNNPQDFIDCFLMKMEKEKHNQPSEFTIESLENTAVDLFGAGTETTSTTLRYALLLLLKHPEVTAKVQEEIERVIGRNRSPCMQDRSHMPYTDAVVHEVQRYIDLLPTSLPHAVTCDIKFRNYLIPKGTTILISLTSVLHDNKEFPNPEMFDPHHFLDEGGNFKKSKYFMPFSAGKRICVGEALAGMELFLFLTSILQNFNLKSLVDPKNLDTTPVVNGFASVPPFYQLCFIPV

Row | Structure (SMILES) | remaining at 0.5 h [1] | remaining at 0.5 h [2] | Activity [3] | EC50 [4] | Activity [5] | remaining at 0.5 h [6] | EC50 [7] | activity at 0.25 h, 10 µM (CYP2D6) | activity at 0.25 h, 10 µM (CYP3A4) | remaining at 1 h [8] | remaining at 1 h [9] | activity at 0.25 h, 10 µM (CYP2C9) | Activity ([3]; filed as agonist) | activity at 0.25 h, 10 µM (CYP1A2) | remaining at 1 h [10]
1 | CC(C)Oc1ccc(COc2ccc3c(c2)CCN(S(=O)(=O)CCC(=O)N(C)C)C3)cc1C#N | 14.1% | 18.9% | 4% | 0.453 µM | 98% | 18.7% |  |  |  |  |  |  |  |  | 
2 | CC(C)Oc1ccc(COc2ccc3c(c2)CCCN(S(=O)(=O)CCO)C3)cc1C#N |  |  |  | 0.0111 µM | 116% |  | 0.618 µM | 79.1% | 84.7% | 10.7% | 15.2% | 53.7% | 68% | 85.1% | 13.1%
3 | CC(C)Oc1ccc(COc2ccc3c(c2)OCCN(S(=O)(=O)CCCO)C3)cc1C#N |  |  |  | 0.0737 µM | 92% |  |  | 75.6% | 92.7% | 9.3% | 17.5% | 57.2% | 46% | 70.2% | 6.8%
4 | CC(C)Oc1ccc(COc2ccc3c(c2)CCN(S(=O)(=O)CCC(=O)O)C3C)cc1C#N (stereo not given) |  |  | 8% | 0.795 µM | 77% |  |  | 87.6% | 92% | 89.7% | 100% | 78.4% |  | 93.2% | 90.8%
5 | CC(C)Oc1ccc(COc2ccc3c(c2)CCCN(S(=O)(=O)CCCO)C3)cc1C#N |  |  |  | 0.0947 µM | 81% |  | 0.502 µM | 89.4% | 82.4% | 8.7% | 16.2% | 67.7% | 69% | 100% | 113%
6 | CC(C)Oc1ccc(COc2ccc3c(c2)CCN(C(=O)CCNS(C)(=O)=O)C3)cc1C#N | 42.8% | 29.7% | 23% | 0.253 µM | 122% | 41.7% |  |  |  |  |  |  |  |  | 
7 | CC(C)Oc1ccc(COc2ccc3c(c2)CCCN(S(=O)(=O)CC(=O)O)C3)cc1C#N |  |  |  | 0.0253 µM | 94% |  | 0.0463 µM | 89.4% | 87.7% | 85.1% | 90.9% | 86.1% | 94% | 86.9% | 73.6%
